Data on one molecule can be found in ChEMBL document CHEMBL1150629, “Isolation and structure of pedilstatin from a republic of maldives Pedilanthus sp” (J Nat Prod, 2002).

Experiment [1] relates to Human immunodeficiency virus 1. Nature of the experiment: Antiviral activity against HIV1 RF in human CEM-SS cells assessed as cell protection from infection at 2 to 5 uM after 7 days relative to control. In kind it is functional.
For another experiment, the system named is P388. Description: Cytotoxicity against mouse P388 cells. In kind it is functional. The conditions noted are these: read-out: ED50 (the source's name).
The next experiment concerns CEM-SS. Nature of the experiment: Cytotoxicity against human CEM-SS cells assessed as inhibition of cell metabolic activity after 7 days by XTT assay. In kind it is functional, cell-based. The note with it: 168 h. For orientation: Formazan colour is commonly taken as a measure of viable cells.
The test system of experiment [2] is Human immunodeficiency virus 1. Description: Antiviral activity against HIV1 RF in human CEM-SS cells assessed as cell protection from infection after 7 days. In kind it is functional, organism-based. The conditions noted are these: Human immunodeficiency virus 1, CEM-SS, 168 h.
A short description of experiment [3]: Inhibition of [20-3H]phorbol 12,13-dibutyrate binding to protein kinase C.

In brackets after ≈: the same amount, converted by molar mass.

Broadly, the IC50 is the concentration that inhibits the measured activity by half. The term Ki denotes a dissociation constant, usually derived from enzyme kinetics or from competition with a known ligand. A low value points to higher affinity.

Turning to `CCC/C=C/C=C\C(=O)O[C@@H]1[C@@H](C)[C@]2(O)[C@@H]3C=C(C)C(=O)[C@@H]3CC(CO)=C[C@H]2[C@@H]2C(C)(C)[C@]12OC(C)=O` [PEDILSTATIN], the Activity in experiment [1] was 80%. The results for the EC50 (in the experiment on P388; in experiment [2]) were 0.28 µg/mL (≈ 0.546 µM) and 1030 nM, respectively. In addition, the IC50 in the experiment on CEM-SS came to 13300 nM. This molecule also returned a Ki in experiment [3] of 620 nM.
